Measured values from article PMC13308190, “Endothelial progenitor cell susceptibility to DNA damaging and DDR-modulating compounds determines endothelial differentiation accuracy” (Stem Cell Research & Therapy, 2026).

Legend:
[1] = system: EC d6 (endothelial-like cells); assay: RT-qPCR mRNA expression; type: cell-based, mouse; conditions: for Atp7a mRNA / Atp7b mRNA / Ctr2 mRNA / Mdr1 mRNA / Mrp1 mRNA / Oct2 mRNA: Fig 2D
Experimental: Total RNA was purified using the RNeasy Mini Kit (Qiagen, Hilden, Germany). Reverse transcriptase (RT) reaction was performed with the HighCapacity cDNA Reverse Transcription Kit (Applied Biosystems, Darmstadt, Germany) using 900–2000 ng of RNA. Quantitative RT-qPCR analysis was performed using following conditions: (1) 95 °C–10 min; (2) 45 amplification cycles with 95 °C–15 s, 55 °C–15 s, and 72 °C–17 s; (3) 95 °C–1 min, 55 °C–1 min, 65 °C–5 s. If not stated otherwise, analyses were performed in technical triplicates using pooled samples from two independent experiments (each performed with biological duplicates) by use of a CFX96 cycler (BioRad) and the SensiMix SYBR Kit (Bioline, London, UK). The primers used for mRNA expression analyses are listed in Supplementary Table 1. To ensure the specificity of the amplification product, melting curves were recorded at the end of the run. mRNA expression levels were normalized to β-Actin and Gapdh. Relative mRNA expression in mESC or corresponding untreated controls was set to 1.0. Only changes in gene expression of ≤ 0.5- and ≥ 2-fold were considered as biologically relevant.

[2] = system: mESC; assay: Western blot protein expression (densitometry); type: cell-based, mouse; conditions: mESC 24 h
Method in brief: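 Whole-cell RIPA extracts (probe sonication) quantified by DC assay; 20 µg protein resolved by SDS-PAGE, blotted to nitrocellulose. Blocked 1 h RT in 5% milk or BSA/TBST; primary antibodies 1:500–5000 overnight 4 °C, peroxidase secondary 1:2000 2 h RT. Chemiluminescent bands imaged, levels by densitometry.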

[3] = EC d6 + 0.05 µM 24 h + 24 h post incubation, Fig 7C
[4] = EC d6 + 0.1 µM 24 h + 24 h post incubation, Fig 7C
[5] = Fig 5D, concentration 1 (Dox 1/B02 1/EST 1)
[6] = Fig 5D, concentration 2 (Dox 2/B02 2/EST 2)

Q: Which “Il6 mRNA” value [1, 3] does the source give for `COc1cccc2c1C(=O)c1c(O)c3c(c(O)c1C2=O)C[C@@](O)(C(=O)CO)C[C@@H]3O[C@H]1C[C@H](N)[C@H](O)[C@H](C)O1` [Dox, doxorubicin] here?
A: 1.91 Fold of untreated control

Q: And the “Il8 mRNA” value [1, 3]?
A: 1.31 Fold of untreated control

Q: What about the “Tp53 mRNA” value [1, 3] of the same molecule?
A: 1.15 Fold of untreated control

Q: And the “Atp7a mRNA” value ([1]; EC d6 + 0.05 µM 24 h)?
A: 1.47 Fold of control

Q: And the “Atp7b mRNA” value ([1]; EC d6 + 0.05 µM 24 h)?
A: 0.99 Fold of control

Q: What about the “Ctr2 mRNA” value ([1]; EC d6 + 0.05 µM 24 h) of the same molecule?
A: 1.13 Fold of control

Q: What about the “Mdr1 mRNA” value ([1]; EC d6 + 0.05 µM 24 h) of the same molecule?
A: 4.89 Fold of control

Q: And the “Mrp1 mRNA” value ([1]; EC d6 + 0.05 µM 24 h)?
A: 1.23 Fold of control

Q: What about the “Oct2 mRNA” value ([1]; EC d6 + 0.05 µM 24 h) of the same molecule?
A: 0.25 Fold of control

Q: What about the “Gpx1 mRNA” value ([1]; EC d6 + 0.05 µM 24 h, Fig 6C) of the same molecule?
A: 1.10 Fold of untreated control

Q: What about the “Gpx4 mRNA” value ([1]; EC d6 + 0.05 µM 24 h, Fig 6C) of the same molecule?
A: 1.68 Fold of untreated control

Q: And the “Gstm1 mRNA” value ([1]; EC d6 + 0.05 µM 24 h, Fig 6C)?
A: 2.52 Fold of untreated control

Q: What about the “Hmox1 mRNA” value ([1]; EC d6 + 0.05 µM 24 h, Fig 6C) of the same molecule?
A: 2.63 Fold of untreated control

Q: And the “Pgc1a mRNA” value ([1]; EC d6 + 0.05 µM 24 h, Fig 6C)?
A: 10.96 Fold of untreated control

Q: What about the “Sod1 mRNA” value ([1]; EC d6 + 0.05 µM 24 h, Fig 6C) of the same molecule?
A: 2.60 Fold of untreated control

Q: And the “Sod2 mRNA” value ([1]; EC d6 + 0.05 µM 24 h, Fig 6C)?
A: 1.17 Fold of untreated control

Q: What about the “Slc7a11 mRNA” value ([1]; EC d6 + 0.05 µM 24 h, Fig 6F) of the same molecule?
A: 0.82 Fold of untreated control

Q: What about the “Cdkn1a mRNA” value [1, 4] of the same molecule?
A: 5.67 Fold of untreated control

Q: And the “Cdkn2a mRNA” value [1, 4]?
A: 2.66 Fold of untreated control

Q: And the “Glb1 mRNA” value [1, 4]?
A: 1.97 Fold of untreated control

Q: And the “Il6 mRNA” value [1, 4]?
A: 3.23 Fold of untreated control

Q: And the “Il8 mRNA” value [1, 4]?
A: 1.15 Fold of untreated control

Q: And the “Tp53 mRNA” value [1, 4]?
A: 1.09 Fold of untreated control

Q: What about the “Atp7a mRNA” value ([1]; EC d6 + 0.1 µM 24 h) of the same molecule?
A: 1.77 Fold of control

Q: What about the “Atp7b mRNA” value ([1]; EC d6 + 0.1 µM 24 h) of the same molecule?
A: 1.11 Fold of control

Q: And the “Ctr2 mRNA” value ([1]; EC d6 + 0.1 µM 24 h)?
A: 1.27 Fold of control

Q: What about the “Mdr1 mRNA” value ([1]; EC d6 + 0.1 µM 24 h) of the same molecule?
A: 11.55 Fold of control

Q: And the “Mrp1 mRNA” value ([1]; EC d6 + 0.1 µM 24 h)?
A: 1.40 Fold of control

Q: What about the “Oct2 mRNA” value ([1]; EC d6 + 0.1 µM 24 h) of the same molecule?
A: 1.39 Fold of control

Q: What about the “Brca1 mRNA” value ([1]; EC d6 + 0.1 µM 24 h, Fig 5C) of the same molecule?
A: 0.45 Fold of mESC

Q: And the “Chk1 mRNA” value ([1]; EC d6 + 0.1 µM 24 h, Fig 5C)?
A: 0.43 Fold of mESC

Q: What about the “Rad51 mRNA” value ([1]; EC d6 + 0.1 µM 24 h, Fig 5C) of the same molecule?
A: 0.48 Fold of mESC

Q: What about the “Pgc1a mRNA” value ([1]; EC d6 + 0.1 µM 24 h, Fig 6D) of the same molecule?
A: 21.56 Fold of untreated control

Q: And the “Gpx4 mRNA” value ([1]; EC d6 + 0.1 µM 24 h, Fig 6F)?
A: 0.99 Fold of untreated control

Q: And the “Slc7a11 mRNA” value ([1]; EC d6 + 0.1 µM 24 h, Fig 6F)?
A: 1.09 Fold of untreated control

Q: What about the “Cldn5 mRNA” value ([1]; EC d6 + 0.1 µM 24 h, Fig 8C) of the same molecule?
A: 2.50 Fold of EC d4 or d6

Q: What about the “Ocln mRNA” value ([1]; EC d6 + 0.1 µM 24 h, Fig 8C) of the same molecule?
A: 1.79 Fold of EC d4 or d6

Q: And the “Tjp1 mRNA” value ([1]; EC d6 + 0.1 µM 24 h, Fig 8C)?
A: 1.21 Fold of EC d4 or d6

Q: And the H3ac protein ([2]; Fig 1D)?
A: 0.3 Fold of mESC

Q: And the H4ac protein ([2]; Fig 1D)?
A: 0.0 Fold of mESC

Q: And the “aTubac (acetylated α-Tubulin) protein” value ([2]; Fig 1D)?
A: 0.5 Fold of mESC

Q: What about the CHK1 protein ([2]; Fig 4H, Dox 2) of the same molecule?
A: 1.3 Fold of mESC

Q: And the p-ATR protein ([2]; Fig 4H, Dox 2)?
A: 2.7 Fold of mESC

Q: What about the p-CHK1 protein ([2]; Fig 4H, Dox 2) of the same molecule?
A: 4.4 Fold of mESC

Q: What about the p-RPA32 protein ([2]; Fig 4H, Dox 2) of the same molecule?
A: 1.5 Fold of mESC

Q: What about the p-p53 protein ([2]; Fig 4H, Dox 2) of the same molecule?
A: 6.5 Fold of mESC

Q: What about the CHK1 protein ([2]; Fig 4H, Eto, Dox 1, B02, EST) of the same molecule?
A: 1.0 Fold of mESC

Q: What about the p-ATR protein ([2]; Fig 4H, Eto, Dox 1, B02, EST) of the same molecule?
A: 1.9 Fold of mESC

Q: And the p-CHK1 protein ([2]; Fig 4H, Eto, Dox 1, B02, EST)?
A: 2.4 Fold of mESC

Q: What about the p-RPA32 protein ([2]; Fig 4H, Eto, Dox 1, B02, EST) of the same molecule?
A: 1.1 Fold of mESC

Q: What about the p-p53 protein ([2]; Fig 4H, Eto, Dox 1, B02, EST) of the same molecule?
A: 6.4 Fold of mESC

Q: And the CHK1 protein [2, 5]?
A: 1.7 Fold of mESC

Q: And the RAD51 protein [2, 5]?
A: 1.2 Fold of mESC

Q: And the gH2AX protein [2, 5]?
A: 69.7 Fold of mESC

Q: And the p-CHK2 protein [2, 5]?
A: 1.1 Fold of mESC

Q: What about the p-KAP1 protein [2, 5] of the same molecule?
A: 31.2 Fold of mESC

Q: What about the p-RPA32 protein [2, 5] of the same molecule?
A: 1.4 Fold of mESC

Q: What about the p-p53 protein [2, 5] of the same molecule?
A: 4.2 Fold of mESC

Q: What about the CHK1 protein [2, 6] of the same molecule?
A: 1.8 Fold of mESC

Q: And the RAD51 protein [2, 6]?
A: 0.9 Fold of mESC

Q: And the gH2AX protein [2, 6]?
A: 174.9 Fold of mESC

Q: And the p-CHK2 protein [2, 6]?
A: 1.5 Fold of mESC

Q: What about the p-KAP1 protein [2, 6] of the same molecule?
A: 59.9 Fold of mESC

Q: And the p-RPA32 protein [2, 6]?
A: 1.8 Fold of mESC

Q: And the p-p53 protein [2, 6]?
A: 5.7 Fold of mESC

Q: What about the AMPKa protein ([2]; Fig 6E) of the same molecule?
A: 0.2 Fold of mESC

Q: And the GSK3b protein ([2]; Fig 6E)?
A: 0.8 Fold of mESC

Q: And the p-p70SK protein ([2]; Fig 6E)?
A: 1.1 Fold of mESC
